Like-named read-outs stand apart in the source and are kept apart here. Residues, ends and D or L forms follow the SMILES beside them.
Legend:
[1] = in words; cited from earlier work
[2] = Dose escalation study in DIO rats; assay type: in vivo, male DIO Sprague Dawley rats
From the text: Male DIO Sprague Dawley rats (n=4) were fed 60% HF diet (formula: D12492; Research Diets, Inc., New Brunswick, NJ, USA; 5.21 kcal/g) for 16 weeks prior to the start of the study. Rats were changed to being singly housed and allowed to acclimate for at least one week prior to the start of this study. Animals averaged 844.15 Z 99.95 g at baseline. Baseline measures of body weight, food intake, and water intake were taken for 6 days before drug administration began. Doses for the dose escalation study included 1, 2, 5, 10, 20, 50, and 100 nmol/kg. Body weight, food and water intake were assessed just prior to the start of the dark cycle. […] In certain embodiments, the greatest anorectic effect achieved with ASK1476 occurred at the 300 nmol/kg/d dose yielding a ~34% reduction in caloric intake while ASK2131 dosed at 2 nmol/kg/d yielded a ~55% reduction in caloric intake.

[3] = intranasal; in words; cited from earlier work
[4] = Blood parameters after 22-day treatment of DIO rats; assay type: in vivo, male Sprague Dawley rats; details: 22 days sc, mean ± SEM, OXT n=4
From the text: (§1) Male Sprague Dawley rats were fed 60% HF diet (D12492; Research Diets, Inc; New Brunswick, NJ; 5.21 kcal/g) for 16 weeks prior to the start of the study. Rats were then singly house in BioDAQ cages (Research Diets, Inc.; New Brunswick, NJ) and allowed to acclimate to their new environment for 10 days. Baseline measures of body weight, food intake and water intake were taken for one week to balance the groups and create feeding pairs. Each group (n=6 animals/group) averaged 714.47±81.6 g at baseline (Table 3).
(§2) Effects of ASK2131 were compared to a vehicle-treated group, OXT-treated group, as well as a pair-fed control group. Three days of baseline measures were taken before subcutaneous treatment administration began on day 4 of the study. Assessments were made to body weight, food intake and water intake. ASK2131 was administered at 50 nmol/kg throughout the entire study period. […] OXT-treated animals were started at 50 nmol/kg dose for two days, followed by 150 nmol/kg, then 300 nmol/kg, until ending at 600 nmol/kg for the remainder of the study.
Cardiac puncture was used to collect blood for analysis 2 h post final injection. Commercially available enzyme-linked immunosorbent assays (ELISA) were used for quantitative assessment of leptin (cat. #EZRL-83K; MilliporeSigma, Burlington, MA, USA), insulin (cat. #EZRMI-13K; MilliporeSigma, Burlington, MA, USA), and adiponectin (cat. #EZRAPD-62K MilliporeSigma, Burlington, MA, USA). Serum samples were diluted 1:500 for the adiponectin ELISA using the sample diluent provided with the kit. All ELISAs were completed following the manufacturers recommendations. Levels of glucose, cholesterol (total, HDL, and calculated LDL), triglycerides, ALT, and AST were determined in the serum on a Modular P chemistry analyzer (Roche Diagnostics, Risch-Rotkreuz, Switzerland) by the University of Washington Nutrition and Obesity Research Center's Analytic Core (Seattle, WA, USA).

[5] = cited from earlier work
[6] = 22-day long-term study in DIO rats (body weight, food and water intake); assay type: in vivo, male Sprague Dawley rats
From the text: For studies utilizing a DIO rat model, male Sprague Dawley rats (CD-IGS rats, strain 001; approximately 4 weeks of age; 51-75 g) purchased from Charles River Laboratories (Wilmington, MA, USA). These rats were fed a diet of 60% calories from fat (Formula: D12492; Research Diets, Inc., New Brunswick, NJ, USA; 5.21 kcal/g) for 4.5 to 6 months prior to the start of the study to induce obesity. For studies utilizing lean rats, male Sprague Dawley rats (CD-IGS rats, strain 001; 226-250 g) purchased from Charles River Laboratories (Wilmington, MA, USA). All rats had ad libitum access to food and water and were kept on a 12 h light/12 h dark cycle. Animals were individually housed in a temperature (22±1° C.) and humidity (57±4%) controlled room. All body weight measurements were taken just prior to the start of the dark cycle.
as §1, §2

[7] = tested on: amygdala activation; details: 24 IU, but not lower (12 IU) or higher (48 IU) doses; in words; cited from earlier work
[8] = peripheral administration; in words; cited from earlier work
[9] = tested on: OXT receptors; details: prolonged OXT treatment, in words, cited from earlier work
[10] = iv, rat; marked [2]; cited from earlier work
[11] = cited from earlier work; remark: listed apart in the source
[12] = sc, mouse, marked [2], cited from earlier work
[13] = in words; cited from earlier work; remark: listed apart in the source
[14] = ELISA, 2 h post final injection

In the case of CCCCCCCCCCCCCCCC(=O)NCCOCCOCCOCCOCCOCCOCCOCCOCCC(=O)NCCCC[C@H](NC(=O)CNC(=O)[C@@H]1CSSC[C@H](N)C(=O)N[C@@H](Cc2ccc(O)cc2)C(=O)N[C@@H]([C@@H](C)CC)C(=O)N[C@@H](CCC(N)=O)C(=O)N[C@@H](CC(N)=O)C(=O)N1)C(=O)NCC(N)=O [ASK1476] (HELM PEPTIDE1{C.Y.I.Q.N.C.G.K.G.[am]}|PEPTIDE2{[CCCCCCCCCCCCCCCC(=O)[*:2]].[O=C(CCOCCOCCOCCOCCOCCOCCOCCOCCN[*:1])[*:2]]}$PEPTIDE1,PEPTIDE2,8:R3-2:R2|PEPTIDE1,PEPTIDE1,1:R3-6:R3$$$V2.0), the “response in a prior study” value [1] is listed as “U-shaped response” and the “reduction in caloric intake, greatest anorectic effect” value ([2]; 300 nmol/kg/d) is listed as ~ 34%.
For CC[C@H](C)[C@@H]1NC(=O)[C@H](Cc2ccc(O)cc2)NC(=O)[C@@H](N)CSSC[C@@H](C(=O)N2CCC[C@H]2C(=O)N[C@@H](CC(C)C)C(=O)NCC(N)=O)NC(=O)[C@H](CC(N)=O)NC(=O)[C@H](CCC(N)=O)NC1=O [OXT], the “body weight in obese humans” value [3] is given as “shown to reduce body weight in obese humans”, the “dose response in human trials” value [3] is given as “U-shaped response” and the “LDL, calculated” value ([4]; Calculated LDL = Cholesterol − (HDL + Triglycerides/5)) is given as 22 ± 2 mg/dL. The Adiponectin [4, 14] was 60.8 ± 3.9 ng/mL, the Insulin [4, 14] was 7.2 ± 2.1 ng/mL and the Leptin [4, 14] was 54.9 ± 7.9 ng/mL. It also gave an ALT ([4]; serum 2 h post final injection) of 40 ± 5 U/L, an AST ([4]; serum 2 h post final injection) of 128 ± 22 U/L and a Glucose ([4]; serum 2 h post final injection) of 203 ± 13 mg/dL. It also gave an HDL ([4]; serum 2 h post final injection) of 25 ± 2 mg/dL, a Triglycerides ([4]; serum 2 h post final injection) of 145 ± 7 mg/dL and a Cholesterol ([4]; serum 2 h post final injection, superscript b: p<0.01 vs vehicle) of 76 ± 3 mg/dL. For the same compound, the “weight loss through energy expenditure” value ([5]; in words) was “elicits weight loss through increases in energy expenditure”, the “change in body weight” value ([5]; one month: two weeks at 0.2 mg/kg then two weeks at 0.4 mg/kg) was 3.3% and the Post-treatment body weight ([6]; 22 days sc, ASK2131 50 nmol/kg, OXT titrated 50 to 600 nmol/kg, mean ± SEM) was 719 ± 20 g. For the same compound, the “% change in body weight” value ([6]; 22 days sc, ASK2131 50 nmol/kg, OXT titrated 50 to 600 nmol/kg, mean ± SEM, superscripts b: p<0.01, c: p<0.001 vs vehicle, d: p<0.001 vs OXT) was 0.1 ± 1 ^b %, the “reduction in food intake compared to vehicle-treated group” value ([6]; OXT titrated to 600 nmol/kg, 95% CI 0.2550 to 40.59, p=0.0464, in words) was “did not exhibit a significant reduction in food intake” and the “weight loss vs. vehicle” value ([6]; end of treatment, OXT titrated to 600 nmol/kg) was 5%. For the same compound, the “body weight, PMD vs vehicle” value ([6]; treatment day 9, after 8 days, OXT titrated, 95% CI −5.80 to −0.43%, p=0.014) was −3.12%, the amygdala activation [7] was “significant decrease in amygdala activation” and the “food intake, energy expenditure, weight gain” value [8] was “reduces food intake, enhances energy expenditure, and prevents or reduces weight gain”. The “desensitization of the OXT receptors” value ([9]; in vitro) was “shown to promote desensitization of the OXT receptors in vitro”, the OXTR binding [9] was “reductions of OXTR binding” and the CLplasma [10] was 17.1 mL/min/kg. The T1/2 [10] was 7.2 min, the Vd [10] was 0.085 L/kg and the “change in body weight” value ([11]; after a single dose of 1000 μg (1000 nmol)) was 0.01%. The “decrease in food intake” value ([11]; single injection of 1000 μg (1000 nmol)) was 12%, the “reduction in caloric intake, maximum effect” value ([2]; 1200 nmol/kg/d) was ~ 36% and the T1/2 [12] was 30 min. For the same compound, the Tmax [12] was 15 min, the “free Cmax” value [12] was 191 nM and the Cmax ([12]; total) was 216 nM. For the same compound, the blood-brain barrier passage [13] was “does not cross the blood-brain barrier”.

Source: patent US20260337229A1 (Seattle Children's Hospital (d/b/a Seattle Children's …, priority 2022, published 2026)
